Experimental findings from ChEMBL document CHEMBL1201862, “PubChem BioAssay data set” (2004) are described below.

Some test systems named below: LXFL 529; RXF 631; DMS-273; SNB-78; HOP-18; M19-MEL; KM-20L2; DMS-114; BT-549.
What all share (assay): NCI tumour cell line growth inhibition, 48 h

Molecules are shown by their SMILES.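 Dose response: 5 concentrations. Exposure: 48 h. Format: 96-well plates. Endpoint: linear interpolation; highest concentration if not reached. GI50 marks 50% less growth.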 Active and inactive are the calls of the source. No stated cut-off is given here; in the data, active = GI50 up to about 1.1 µM and inactive = higher.

Consider `c1ccc(C2CC(c3ccc4ccccc4c3)=Nc3ccccc3S2)cc1` (stereo not given), for which the GI50 in the assay with LXFL 529 is 14.5 µM (inactive); in the assay with RXF 631, 24.3 µM (inactive); in the assay with DMS-273, 21.3 µM (inactive); in the assay on SNB-78, 18.6 µM (inactive); with HOP-18, 19.4 µM (inactive); with M19-MEL, 18.7 µM (inactive). In addition, the GI50 with KM-20L2 is 18.3 µM (inactive).

With `CC(=O)O/C(C)=C\C(=O)O/N=C(\N)c1ccc(C)cc1`, the GI50 in the assay on LXFL 529 is 19.5 µM (inactive); in the assay on RXF 631, 22.5 µM (inactive); in the assay on DMS-273, 28.4 µM (inactive); in the assay on DMS-114, 18.8 µM (inactive); in the assay with SNB-78, 21.1 µM (inactive); in the assay with HOP-18 it was 26.2 µM (inactive). Moreover, the GI50 with KM-20L2 is 33.7 µM (inactive).

Turning to `O=C1CC(C[C@H](O)C2CCCCC2O)CC(=O)N1Cc1ccccc1` (stereo not given in full), the GI50 in the assay with LXFL 529, in the assay with RXF 631, with DMS-273, in the assay with SNB-78, in the assay on HOP-18 and with M19-MEL was > 100 µM (inactive) throughout. Moreover, in the assay with KM-20L2, the GI50 is > 100 µM (inactive).

With `Cc1nn(C(=O)CC(=O)Nc2ccccc2Cl)c(C)c1/N=N/c1ccccc1Cl`, the GI50 in the assay on LXFL 529 was > 100 µM (inactive); in the assay on RXF 631 it was > 100 µM (inactive); in the assay on DMS-273 it was > 100 µM (inactive); with DMS-114 it was > 100 µM (inactive); with SNB-78, 40.9 µM (inactive); in the assay on HOP-18, > 100 µM (inactive). In addition, the GI50 with M19-MEL and in the assay with KM-20L2 was > 100 µM (inactive) each time.

With `CC(C(=O)O)/C(=C\c1ccc2c(c1)OCO2)C(=O)O` (stereo not given), the GI50 in the assay with LXFL 529, in the assay on RXF 631, in the assay on DMS-273, in the assay on BT-549, in the assay with DMS-114 and with HOP-18 was > 100 µM (inactive) each time. For the same compound, the GI50 in the assay with M19-MEL and in the assay on KM-20L2 was > 100 µM (inactive) in each case.

Turning to `CN(C)CCNC(=O)c1cccc2nc3ccc4ccccc4c3nc12`, the GI50 in the assay on RXF 631 was 0.0405 µM (active); in the assay with DMS-273 it was 0.0362 µM (active); with DMS-114, 0.121 µM (active); in the assay on SNB-78, 0.138 µM (active); in the assay on HOP-18 it was 0.197 µM (active); in the assay on M19-MEL, 0.0946 µM (active).

As to `CCCC(=O)c1ccc(=O)n(C)c1`, the GI50 is > 100 µM (inactive) in the assay on LXFL 529; 88.3 µM (inactive) in the assay with RXF 631; > 100 µM (inactive) in the assay with DMS-273; > 100 µM (inactive) in the assay on DMS-114; > 100 µM (inactive) with M19-MEL; > 100 µM (inactive) in the assay with KM-20L2.

Turning to `CCOC(=O)/C(=C\c1ccccc1)C(=O)CCN1CCOCC1`, the GI50 with LXFL 529 was 1.84 µM (inactive); with RXF 631 it was 11.3 µM (inactive); in the assay on DMS-273 it was 10.4 µM (inactive); in the assay on BT-549 it was 16.7 µM (inactive); with DMS-114 it was 4.92 µM (inactive); in the assay on SNB-78, 11.6 µM (inactive). In addition, the GI50 with HOP-18 is 13.9 µM (inactive); in the assay on M19-MEL, 3.62 µM (inactive); with KM-20L2, 9.89 µM (inactive).

For the compound `c1ccc2c(c1)oc1ccc3nsnc3c12`, the GI50 with LXFL 529 is > 100 µM (inactive); in the assay on RXF 631 it was 46.9 µM (inactive); in the assay with DMS-273, > 100 µM (inactive); with DMS-114, > 100 µM (inactive); in the assay on HOP-18, > 100 µM (inactive); in the assay on M19-MEL, > 100 µM (inactive). In the assay on KM-20L2, the GI50 is > 100 µM (inactive).

Take `C[N+]1(C)C/C(=C\c2ccccc2)C(=O)/C(=C/c2ccccc2)C1`: the GI50 in the assay on LXFL 529 is 70.1 µM (inactive); with RXF 631, > 100 µM (inactive); in the assay on DMS-273, 37.5 µM (inactive); in the assay on DMS-114, 39.5 µM (inactive); in the assay with SNB-78, > 100 µM (inactive); with HOP-18, > 100 µM (inactive). The GI50 was 32.7 µM (inactive) in the assay with M19-MEL and > 100 µM (inactive) with KM-20L2.

Consider `O=C1c2ccccc2C2(Br)C(=O)c3ccccc3C12` (stereo not given), for which the GI50 in the assay with LXFL 529 is > 100 µM (inactive); with RXF 631 it was 10.4 µM (inactive); with DMS-273 it was 19.6 µM (inactive); with DMS-114, > 100 µM (inactive); with HOP-18, > 100 µM (inactive); in the assay on M19-MEL, > 100 µM (inactive). The GI50 in the assay on KM-20L2 was > 100 µM (inactive).

For `COc1cc(C(=O)C/C(CCC(=O)Nc2ccccc2[N+](=O)[O-])=N\NC(=O)CC#N)ccc1O`, the GI50 in the assay with LXFL 529, in the assay with RXF 631, in the assay on DMS-273, in the assay on HOP-18, in the assay with M19-MEL and in the assay with KM-20L2 was > 100 µM (inactive) in each case.

As to `CSc1ccc2c(cc1=O)C(NC(=O)c1cc(O)c(OC(=O)O)c(O)c1)CCc1cc(O)c(O)c(O)c1-2` (stereo not given), the GI50 with LXFL 529 was 16.5 µM (inactive); in the assay on DMS-273 it was 17 µM (inactive); in the assay with DMS-114 it was 15.2 µM (inactive); in the assay with SNB-78 it was 33.3 µM (inactive); with HOP-18, > 89.9 µM (inactive); in the assay on M19-MEL, 13.6 µM (inactive). In addition, the GI50 in the assay with KM-20L2 was 24.9 µM (inactive).

For the compound `O=C(O)c1oc2ccc([N+](=O)[O-])c3c2c1CCC3`, the GI50 in the assay on LXFL 529, with DMS-273, in the assay on DMS-114, in the assay with SNB-78, with HOP-18 and with M19-MEL was > 100 µM (inactive) in each case. Further, in the assay with KM-20L2, the GI50 is > 100 µM (inactive).

With `O=c1oc2ccccc2c(O)c1C(C/C(CCN1CCCC1)=N/O)c1ccccc1` (stereo not given), the GI50 is > 100 µM (inactive) in the assay with LXFL 529; > 100 µM (inactive) in the assay with RXF 631; 31.7 µM (inactive) with BT-549; > 100 µM (inactive) in the assay with DMS-114; > 100 µM (inactive) in the assay on M19-MEL; > 100 µM (inactive) with KM-20L2.

For `O=C(CC(=O)N1N=C(N2c3ccccc3Sc3ccccc32)CC1c1ccccc1)Nc1ccc(Cl)cc1` (stereo not given), the GI50 with LXFL 529, in the assay on DMS-273, in the assay on DMS-114, with SNB-78, in the assay on HOP-18 and in the assay on M19-MEL was > 100 µM (inactive) throughout. The GI50 in the assay with KM-20L2 is > 100 µM (inactive).

Consider `CCOC(=O)C1=C(C)N(Cc2ccccc2)C(C)=C(C(=O)OCC)C1c1ccccc1O`, for which the GI50 in the assay on LXFL 529 was 26.5 µM (inactive); in the assay on RXF 631, 22.5 µM (inactive); in the assay on DMS-273, 32.7 µM (inactive); with DMS-114 it was 17.9 µM (inactive); in the assay on HOP-18, 44.2 µM (inactive); with M19-MEL, 27.4 µM (inactive). The GI50 in the assay on KM-20L2 was 41 µM (inactive).

As for `CCN(CC)CCNc1ccc2ncn3c4ccc(OC)cc4c(=O)c1c23`, the GI50 was 2.46 µM (inactive) in the assay with LXFL 529; 1.61 µM (inactive) in the assay on RXF 631; 1.67 µM (inactive) with DMS-273; 16.3 µM (inactive) in the assay on BT-549; 11.5 µM (inactive) in the assay on DMS-114; 14 µM (inactive) in the assay with SNB-78. Further, the figures for the GI50 with HOP-18, with M19-MEL and in the assay on KM-20L2 were 17 µM (inactive), 3.73 µM (inactive) and 0.964 µM (active), respectively.

For the compound `Nc1ccccc1C(=O)CCC1C(=O)NC(=S)NC1=O`, the GI50 in the assay on LXFL 529, in the assay on RXF 631, in the assay on DMS-273, in the assay with DMS-114, in the assay on HOP-18 and in the assay on M19-MEL was > 100 µM (inactive) each time. Moreover, the GI50 with KM-20L2 was > 100 µM (inactive).

With `COc1cc(C2c3cc4c(cc3[C@@H](Nc3ccc5c(c3)OCCO5)C3COC(=O)[C@H]23)OCO4)cc(OC)c1O` (stereo not given in full), the GI50 is 3.44 µM (inactive) in the assay on LXFL 529; 0.273 µM (active) in the assay on RXF 631; 0.109 µM (active) with DMS-273; 3.9 µM (inactive) with BT-549; 0.303 µM (active) in the assay with DMS-114; 1.84 µM (inactive) in the assay with SNB-78. Also, the figures for the GI50 in the assay on HOP-18, in the assay with M19-MEL and in the assay with KM-20L2 were 3.98 µM (inactive), 0.622 µM (active) and 0.745 µM (active), respectively.

Regarding `O=C(Nc1nc2ncn(CC(COc3ccccc3)OC(=O)c3ccccc3)c2c(=O)[nH]1)c1ccccc1` (stereo not given), the GI50 with RXF 631, with DMS-273, in the assay with DMS-114, with M19-MEL and with KM-20L2 was > 100 µM (inactive) throughout.

For the compound `COC(=O)C1(C(C)C)CCc2c(OC)ccc(OC)c2C1=O` (stereo not given), the GI50 in the assay with LXFL 529, with DMS-114, in the assay on SNB-78, with HOP-18, in the assay with M19-MEL and in the assay with KM-20L2 was > 100 µM (inactive) each time.

As to `CC(Cl)(/C=C/Cl)C(Cl)/C=C/C(Cl)(CCl)CBr` (stereo not given), the GI50 is 1.22 µM (inactive) with LXFL 529; 1.91 µM (inactive) in the assay with RXF 631; 3.63 µM (inactive) in the assay with DMS-273; 1.96 µM (inactive) in the assay with DMS-114; 1.75 µM (inactive) with SNB-78; 2.52 µM (inactive) in the assay on HOP-18. Further, the GI50 in the assay with M19-MEL was 3.12 µM (inactive); with KM-20L2 it was 5.22 µM (inactive).

`O=C1OC(c2ccccc2)=N/C1=C/NC(Cc1ccc(O)cc1)C(=O)O` (stereo not given): the GI50 in the assay on LXFL 529 was > 100 µM (inactive); in the assay on DMS-273, > 100 µM (inactive); in the assay with DMS-114 it was > 100 µM (inactive); with SNB-78, > 100 µM (inactive); with HOP-18, 36.1 µM (inactive); in the assay on KM-20L2 it was > 100 µM (inactive).
